Entries after “also recorded” stand apart in the source; their conditions may differ.
system: defined microbial assemblage; test: Stimulation of methane production by a defined microbial assemblage grown on coal as sole carbon source; assay type: cell-based; details: defined microbial assemblage, in vitro culture with coal as sole carbon source, after stimulation with the substance
Description: The availability of a defined microbial assemblage producing methane from coal in vitro, as well as a suite of strains capable of aerobic coal degradation prompted laboratory experiments where various stimulants were tested for their effect on methane production.
This degradation is stimulated by the addition of oxygen as reactant for the oxygenase-classes of enzymes present in some of the strains included in the DMA.

Compound	methane production
CN(C)C [trimethylamine]	increased methane production
CC(=O)O [acetate]	increased methane production
[HH] [H2, hydrogen]	increased methane production
O=O [oxygen]	greatest increase in methane production; also recorded: increased methane production
OCC(O)CO [glycerol]	increased methane production

same assay, conditions: oxygen applied at higher than optimal levels

Compound	methanogenesis
O=O [oxygen]	represses methanogenesis

Source: US7977056B2, “Methods of identifying stimulants for biogenic methane production from hydrocarbon-bearing formations” (Synthetic Genomics, Inc., priority 2008, dated 2011)
